Data as given in ChEMBL document CHEMBL5335794, “Discovery of novel multifunctional ligands targeting GABA transporters, butyrylcholinesterase, β-secretase, and amyloid β aggregation as potential treatment of Alzheimer's disease” (Eur J Med Chem, 2023).

Legend:
Beta-secretase 1 [1] = target: T1, Beta-secretase 1 (Homo sapiens, UniProt P56817)
[2] = target: Cholinesterase (Equus caballus) (UniProt P81908); assay: Inhibition of equine serum BuChE using butyrylthiocholine iodide as substrate at 10 uM preincubated for 5 mins followed by substrate addition and measured after 5 mins by DTNB reagent based Ellman's method relative to control; conditions: time 10.0 min
[3] = target: Acetylcholinesterase (Electrophorus electricus) (UniProt O42275); assay: Inhibition of electric eel AChE using acetylthiocholine iodide as substrate at 10 uM preincubated for 5 mins followed by substrate addition and measured after 5 mins by DTNB reagent based Ellman's method relative to control; conditions: time 10.0 min
[4] = target: Amyloid-beta precursor protein (Homo sapiens) (UniProt P05067); assay: Inhibition of amyloid beta40 (unknown origin) aggregation at 10 uM measured every 5 mins by ThT fluorescence based assay relative to control
[5] = target: Amyloid-beta precursor protein (Homo sapiens) (UniProt P05067); assay: Inhibition of amyloid beta42 (unknown origin) aggregation expressed in Escherichia coli BL21 (DE3) at 10 uM measured every 5 mins by ThT fluorescence based assay relative to control
Cholinesterase = Cholinesterase (Equus caballus, UniProt P81908)
Description: Inhibition of equine serum BuChE using butyrylthiocholine iodide as substrate preincubated for 5 mins followed by substrate addition and measured after 5 mins by DTNB reagent based Ellman's method

Beta-secretase 1 [6] = target: T1, Beta-secretase 1; conditions: dose 50.0 µM, time 60.0 min
[7] = Inhibition of mouse GAT3 transfected in HEK293 cells assessed as reduction in [3H]-GABA uptake preincubated for 25 mins followed by [3H]-GABA addition and measured after 4 mins by liquid scintillation counting analysis; format: cell-based; conditions: for IC50: HEK293, read-out: pIC50 (converted)
GABA transporter 2 = target: T2, GABA transporter 2 (Mus musculus, UniProt P31651); assay: Inhibition of mouse GAT2 transfected in HEK293 cells assessed as reduction in [3H]-GABA uptake preincubated for 25 mins followed by [3H]-GABA addition and measured after 10 mins by liquid scintillation counting analysis; format: cell-based; conditions: read-out: pIC50 (converted)
T2 sequence (P31651 whole entry): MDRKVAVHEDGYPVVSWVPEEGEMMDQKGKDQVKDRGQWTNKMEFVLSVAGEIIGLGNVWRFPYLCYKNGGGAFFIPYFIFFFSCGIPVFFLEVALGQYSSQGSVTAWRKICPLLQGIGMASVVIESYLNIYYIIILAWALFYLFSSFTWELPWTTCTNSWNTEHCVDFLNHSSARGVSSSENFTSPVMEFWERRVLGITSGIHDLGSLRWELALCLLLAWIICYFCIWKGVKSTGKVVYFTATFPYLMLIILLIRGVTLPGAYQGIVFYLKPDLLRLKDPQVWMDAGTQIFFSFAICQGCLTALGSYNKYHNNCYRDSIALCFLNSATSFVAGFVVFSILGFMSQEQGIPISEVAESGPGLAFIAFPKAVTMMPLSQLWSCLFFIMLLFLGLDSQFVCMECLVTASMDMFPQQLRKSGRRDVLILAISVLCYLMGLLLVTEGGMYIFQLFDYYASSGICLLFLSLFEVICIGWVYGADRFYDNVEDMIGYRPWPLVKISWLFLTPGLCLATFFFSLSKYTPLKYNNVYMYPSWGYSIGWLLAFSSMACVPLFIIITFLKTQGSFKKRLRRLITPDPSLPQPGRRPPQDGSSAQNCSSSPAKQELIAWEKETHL

[8] = target: Sodium- and chloride-dependent GABA transporter 1 (Mus musculus) (UniProt P31648); assay: Inhibition of NO 711 marker binding to mouse GAT1 assessed as residual activity at 100 uM by LC-ESI-MS/MS based competitive MS binding assay relative to control
[9] = target: T3, Sodium- and chloride-dependent GABA transporter 1 (Mus musculus, UniProt P31648); assay: Inhibition of mouse GAT1 transfected in HEK293 cells assessed as reduction in [3H]-GABA uptake preincubated for 25 mins followed by [3H]-GABA addition and measured after 4 mins by liquid scintillation counting analysis; format: cell-based; conditions: read-out: pIC50 (converted)
GABA transporter 4 = target: T4, GABA transporter 4 (Mus musculus, UniProt P31650); assay: Inhibition of mouse GAT4 transfected in HEK293 cells assessed as reduction in [3H]-GABA uptake preincubated for 25 mins followed by [3H]-GABA addition and measured after 4 mins by liquid scintillation counting analysis; format: cell-based; conditions: read-out: pIC50 (converted)
T4 sequence (P31650 whole entry): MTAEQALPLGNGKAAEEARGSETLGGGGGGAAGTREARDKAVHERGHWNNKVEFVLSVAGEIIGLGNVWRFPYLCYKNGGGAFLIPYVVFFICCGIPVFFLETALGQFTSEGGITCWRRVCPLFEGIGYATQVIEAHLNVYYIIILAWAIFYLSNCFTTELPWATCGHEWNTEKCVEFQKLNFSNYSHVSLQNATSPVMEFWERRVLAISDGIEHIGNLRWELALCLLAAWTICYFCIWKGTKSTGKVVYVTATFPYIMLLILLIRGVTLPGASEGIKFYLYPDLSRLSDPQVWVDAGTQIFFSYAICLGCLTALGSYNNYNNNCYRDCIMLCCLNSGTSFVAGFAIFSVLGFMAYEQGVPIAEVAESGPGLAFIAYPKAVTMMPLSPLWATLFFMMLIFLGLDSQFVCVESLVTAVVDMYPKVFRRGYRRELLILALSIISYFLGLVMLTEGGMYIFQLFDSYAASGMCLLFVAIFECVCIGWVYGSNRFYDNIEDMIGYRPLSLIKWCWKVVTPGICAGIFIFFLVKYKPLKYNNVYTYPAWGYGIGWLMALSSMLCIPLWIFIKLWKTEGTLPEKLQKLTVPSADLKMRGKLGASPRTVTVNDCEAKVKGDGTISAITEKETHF

[10] = target: T3, Sodium- and chloride-dependent GABA transporter 1; assay: Inhibition of NO 711 marker binding to mouse GAT1 by LC-ESI-MS/MS based competitive MS binding assay

T1 sequence (P56817 whole entry): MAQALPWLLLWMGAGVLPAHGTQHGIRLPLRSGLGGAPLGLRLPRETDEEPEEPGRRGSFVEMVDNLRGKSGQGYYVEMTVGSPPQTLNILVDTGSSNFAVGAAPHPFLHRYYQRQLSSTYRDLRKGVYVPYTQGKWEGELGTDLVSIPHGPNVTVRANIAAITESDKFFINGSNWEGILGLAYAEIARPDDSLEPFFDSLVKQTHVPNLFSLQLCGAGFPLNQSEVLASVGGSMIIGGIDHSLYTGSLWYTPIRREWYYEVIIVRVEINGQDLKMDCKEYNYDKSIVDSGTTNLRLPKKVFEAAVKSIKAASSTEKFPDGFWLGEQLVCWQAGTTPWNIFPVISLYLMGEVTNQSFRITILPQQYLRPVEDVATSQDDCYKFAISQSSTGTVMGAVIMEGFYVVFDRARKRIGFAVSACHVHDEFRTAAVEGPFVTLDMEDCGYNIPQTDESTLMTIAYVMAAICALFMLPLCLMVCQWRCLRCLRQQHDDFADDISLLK
Amyloid-beta precursor protein (Homo sapiens), sequence (P05067 whole entry): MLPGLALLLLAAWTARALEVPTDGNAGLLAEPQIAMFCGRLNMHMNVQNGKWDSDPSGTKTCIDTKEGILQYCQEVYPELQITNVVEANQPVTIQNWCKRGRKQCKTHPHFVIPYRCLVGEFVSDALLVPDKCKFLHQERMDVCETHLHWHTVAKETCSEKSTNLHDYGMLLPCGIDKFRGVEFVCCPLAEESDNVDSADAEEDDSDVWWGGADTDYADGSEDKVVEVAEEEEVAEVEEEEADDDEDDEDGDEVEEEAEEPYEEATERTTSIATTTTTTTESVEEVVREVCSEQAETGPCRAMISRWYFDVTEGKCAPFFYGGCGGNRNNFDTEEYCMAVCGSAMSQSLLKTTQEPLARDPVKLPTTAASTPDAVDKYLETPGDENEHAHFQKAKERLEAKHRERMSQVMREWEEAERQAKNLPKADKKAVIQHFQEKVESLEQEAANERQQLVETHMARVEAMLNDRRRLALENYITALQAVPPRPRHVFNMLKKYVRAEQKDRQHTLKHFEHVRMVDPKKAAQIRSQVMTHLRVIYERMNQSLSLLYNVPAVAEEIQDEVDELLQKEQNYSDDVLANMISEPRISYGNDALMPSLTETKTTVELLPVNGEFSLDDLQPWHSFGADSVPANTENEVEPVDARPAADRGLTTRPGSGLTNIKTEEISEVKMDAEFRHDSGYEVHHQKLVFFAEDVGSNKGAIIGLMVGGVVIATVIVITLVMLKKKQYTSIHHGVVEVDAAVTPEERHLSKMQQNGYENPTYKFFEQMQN
Acetylcholinesterase (Electrophorus electricus), sequence (O42275 24-633 limits assumed): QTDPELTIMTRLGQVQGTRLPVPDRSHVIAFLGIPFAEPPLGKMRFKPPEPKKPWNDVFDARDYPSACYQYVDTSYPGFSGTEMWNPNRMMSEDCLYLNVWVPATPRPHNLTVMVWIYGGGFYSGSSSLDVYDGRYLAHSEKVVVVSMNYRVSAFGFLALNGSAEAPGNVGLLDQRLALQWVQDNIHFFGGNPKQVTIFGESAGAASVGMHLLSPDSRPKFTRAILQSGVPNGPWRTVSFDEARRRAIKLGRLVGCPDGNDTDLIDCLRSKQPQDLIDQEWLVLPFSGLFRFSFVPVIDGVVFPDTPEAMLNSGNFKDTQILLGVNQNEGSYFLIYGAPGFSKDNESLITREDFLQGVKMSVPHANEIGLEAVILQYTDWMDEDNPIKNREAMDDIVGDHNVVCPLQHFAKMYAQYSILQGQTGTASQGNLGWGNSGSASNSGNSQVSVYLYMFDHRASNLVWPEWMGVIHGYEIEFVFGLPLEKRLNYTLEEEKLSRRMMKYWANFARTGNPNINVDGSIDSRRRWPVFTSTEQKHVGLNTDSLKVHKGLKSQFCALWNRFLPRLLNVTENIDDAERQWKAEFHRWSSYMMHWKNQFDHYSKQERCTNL
Cholinesterase, sequence (P81908 whole entry): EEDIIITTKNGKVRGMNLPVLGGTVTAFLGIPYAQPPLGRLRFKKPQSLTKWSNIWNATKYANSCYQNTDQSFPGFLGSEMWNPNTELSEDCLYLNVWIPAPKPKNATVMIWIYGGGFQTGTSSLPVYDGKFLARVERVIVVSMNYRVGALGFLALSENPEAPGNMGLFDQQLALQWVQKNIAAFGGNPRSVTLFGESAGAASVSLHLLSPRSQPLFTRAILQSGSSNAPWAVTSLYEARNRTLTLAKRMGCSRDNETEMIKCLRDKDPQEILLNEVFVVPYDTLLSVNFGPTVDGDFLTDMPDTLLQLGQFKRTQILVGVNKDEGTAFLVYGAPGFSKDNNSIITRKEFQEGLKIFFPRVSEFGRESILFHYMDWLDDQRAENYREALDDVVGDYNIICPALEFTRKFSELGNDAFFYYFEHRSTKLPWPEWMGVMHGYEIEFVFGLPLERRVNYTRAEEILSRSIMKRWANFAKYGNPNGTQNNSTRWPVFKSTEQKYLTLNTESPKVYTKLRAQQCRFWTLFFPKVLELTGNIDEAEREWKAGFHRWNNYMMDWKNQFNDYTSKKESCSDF
Cholinesterase (Equus caballus), sequence (P81908 whole entry): as above

Structure (SMILES) | IC50 (Beta-secretase 1 [1]) [µM] | inhibition [2] [%] | inhibition [3] [%] | inhibition [4] [%] | inhibition [5] [%] | IC50 (Cholinesterase) [µM] | inhibition (Beta-secretase 1 [6]) [%] | IC50 [7] [µM] | IC50 (GABA transporter 2) [µM] | Activity [8] [%] | IC50 [9] [µM] | IC50 (GABA transporter 4) [µM] | pIC50 ([7]; hek293) | Ki [10] [µM]
CN(CCC=C1c2ccccc2-c2ccccc21)C(CCO)C(=O)NCc1ccc(Cl)cc1 (stereo unspecified) | 17.3 | 46 | < 10 | – | – | – | – | – | – | – | – | – | – | –
O=C(NCCCCCCCCNc1c2c(nc3cc(Cl)ccc13)CCCC2)c1ccc2nc(-c3ccc(Cl)cc3)c3c(c2c1)NCCC3 | – | – | – | 80.8 | 72.1 | – | – | – | – | – | – | – | – | –
CN(CCC=C1c2ccccc2-c2ccccc21)C(CCO)C(=O)NCc1ccc(F)cc1 (stereo unspecified) | – | – | < 10 | 77.1 | 21.5 | 0.978 | 66 | – | – | – | – | – | – | –
CN(CCC=C1c2ccccc2-c2ccccc21)C(CCO)C(=O)NCc1ccccc1 (stereo unspecified) | 19.5 | – | < 10 | 58.7 | 15.8 | 0.978 | – | – | – | – | – | – | – | –
CC(=O)NCCC(C(=O)NCc1ccc(C)cc1)N(C)CCOCCN1c2ccccc2Sc2ccccc21 (stereo unspecified) | – | – | < 10 | – | – | 3.2 | 52 | 7.94 | 14.1 | 89 | 22.9 | 12.6 | – | –
CN(CCOCCn1c2ccccc2c2ccccc21)C(CCO)C(=O)NCc1ccccc1Cl (stereo unspecified) | – | – | < 10 | – | – | 2.65 | 79 | 13.2 | 16.2 | 94 | 23.4 | 11.2 | – | –
CN(CCOCCN1c2ccccc2Sc2ccccc21)C(CCO)C(=O)NCc1ccccc1 (stereo unspecified) | – | – | < 10 | – | – | 4.34 | 48 | 8.51 | 12.9 | 93 | 35.5 | 21.4 | – | –
CN(CCC=C1c2ccccc2CCc2ccccc21)C(CCN)C(=O)NCc1ccc(Cl)cc1 (stereo unspecified) | 29 | – | 33 | – | – | 2.98 | – | – | – | – | – | – | – | –
CN(CCOCCn1c2ccccc2c2ccccc21)C(CCO)C(=O)NCc1ccccc1 (stereo unspecified) | – | – | < 10 | – | – | 4.16 | 64 | 14.8 | 26.9 | 92 | 38 | 17.4 | – | –
Cc1ccc(CNC(=O)C(CCO)N(C)CCOCCN2c3ccccc3Sc3ccccc32)cc1 (stereo unspecified) | – | – | < 10 | – | – | 2.48 | 30 | 8.51 | 12.9 | 85 | 20.4 | 19.1 | – | –
CN(CCOCCN1c2ccccc2Sc2ccccc21)C(CCO)C(=O)NCc1ccc(F)cc1 (stereo unspecified) | – | – | < 10 | – | – | 4.54 | 42 | 11 | 11.5 | 84 | 26.9 | 13.2 | – | –
CC(=O)NCCC(C(=O)NCc1ccccc1Cl)N(C)CCOCCN1c2ccccc2Sc2ccccc21 (stereo unspecified) | – | – | < 10 | – | – | 2.79 | 35 | 10.2 | 20.4 | 86 | 14.1 | 10.2 | – | –
CC(O)CC(C(=O)NCc1ccccc1)N(C)CC/C=C/c1ccccc1-c1ccccc1 (racemic; form 2) | – | – | – | – | – | 3.71 | – | – | 15.1 | – | 44.7 | 41.7 | 4.87 | 24.5
CC(=O)NCCC(C(=O)NCc1ccc(F)cc1)N(C)CCOCCN1c2ccccc2Sc2ccccc21 (stereo unspecified) | – | – | < 10 | – | – | 8.25 | 45 | 10.7 | 24.5 | 85 | 22.9 | 18.2 | – | –
Cc1ccc(CNC(=O)C(CCN)N(C)CCOCCN2c3ccccc3Sc3ccccc32)cc1 (stereo unspecified) | – | – | < 10 | – | – | 3.63 | 47 | 7.76 | 7.76 | – | 11 | 11.5 | – | 40.7
CN(CCOCCn1c2ccccc2c2ccccc21)C(CCN)C(=O)NCc1ccc(F)cc1 (stereo unspecified) | – | – | < 10 | 95.3 | 30.9 | 0.345 | 78 | 17.4 | 20 | 82 | 33.9 | 18.2 | – | –
Cc1ccc(CNC(=O)C(CCN)N(C)CCC=C2c3ccccc3CCc3ccccc32)cc1 (stereo unspecified) | 4.03 | – | 15 | – | – | 2.35 | – | – | – | – | – | – | – | –
CN(CC/C=C/c1ccccc1-c1ccccc1)C(CO)C(=O)NCc1ccccc1 (stereo unspecified) | – | – | < 10 | – | – | 0.683 | 42 | 17 | 20 | 67 | 25.1 | 17.4 | – | –
CN(CCC=C1c2ccccc2CCc2ccccc21)C(CCN)C(=O)NCc1ccc(F)cc1 (stereo unspecified) | 4.88 | – | 21 | – | – | 1.21 | – | – | – | – | – | – | – | –
CN(CC/C=C/c1ccccc1-c1ccccc1)C(CO)C(=O)NCc1ccccc1Cl (stereo unspecified) | – | – | < 10 | – | – | 2.27 | 51 | 17 | 11 | 75 | 16.2 | 15.5 | – | –
CN(CCOCCn1c2ccccc2c2ccccc21)C(CCO)C(=O)NCc1ccc(F)cc1 (stereo unspecified) | – | – | < 10 | – | – | 4.83 | 65 | 16.2 | 13.8 | 112 | 37.2 | 18.2 | – | –
CC(=O)NCCC(C(=O)NCc1ccccc1)N(C)CCOCCN1c2ccccc2Sc2ccccc21 (stereo unspecified) | – | 58 | < 10 | – | – | – | 30 | 11.7 | 19.1 | 82 | 38 | 25.1 | – | –
CN(CC/C=C/c1ccccc1-c1ccccc1)C(CO)C(=O)NCc1ccc(F)cc1 (stereo unspecified) | – | – | < 10 | – | – | 0.917 | 52 | 22.9 | 22.4 | 94 | 28.8 | 30.2 | – | –
CN(CCC=C1c2ccccc2CCc2ccccc21)C(CCN)C(=O)NCc1ccccc1 (stereo unspecified) | 6.68 | – | 15 | – | – | 1.47 | – | – | – | – | – | – | – | –
CN(CCOCCN1c2ccccc2Sc2ccccc21)C(CCO)C(=O)NCc1ccccc1Cl (stereo unspecified) | – | – | < 10 | – | – | 3.55 | 35 | 26.3 | 31.6 | 100 | 44.7 | 29.5 | – | –
CN(CCC=C1c2ccccc2CCc2ccccc21)C(CCN)C(=O)NCc1ccccc1Cl (stereo unspecified) | 5.13 | – | 28 | – | – | 1.23 | – | – | – | – | – | – | – | –
